Laboratory results taken from patent US12097262B2, “mTORC1 inhibitors” (THE REGENTS OF THE UNIVERSITY OF CALIFORNIA, priority 2014, dated 2024).

Tests used:
SNU-398 = assay: Cell viability assay (CellTiter-Glo), SNU-398; type: cell-based, human; settings: Homo sapiens; for EC50: 72 h after compound treatment
Experimental: (§1) The cells were grown in appropriate medium (vender recommended) supplemented with 10% heat-inactivated fetal bovine serum (FBS), in tissue culture dishes placed in a humidified incubator maintained at 37° C. in an atmosphere of 5% CO2 and 95% air.
(§2) Cell viability assay. Cells were seeded in a 96-multiwell plate at 3000-4000 cells per well in medium containing FBS and cells were incubated at 37° C. overnight. After 18-20 h, compounds in 10×DMSO solution (n=3) were added to the cells and were incubated for additional 3 days in a humidified incubator in an atmosphere of 5% CO2 and 95% air. After treatment of Cell Titer-Glo® luminescent cell viability assay reagent (Promega Corporation, Madison, WI USA), the luminescence value was recorded using SpectraMax M5 Multi-Mode Microplate Readers (Molecular Devices, LLC, Sunnyvale, CA USA). Concentration response curves were generated on GraphPad Prism (GraphPad Software, La Jolla, CA USA) by calculating the decrease in luminescence values in compound-treated samples relative to the DMSO controls.
(§3) Anti-proliferative effects of compounds were evaluated in human colorectal cancer HCT-15 cells (mutation: KRAS, PIK3CA), human hepatocellular carcinoma SNU-449 (mutation: TP53, CDKN2A), SNU-398 (mutation: CTNNB 1), SNU-182 (mutation: TP53) and renal adenocarcinoma 786-O (mutation: VHL, PTEN, TP53, CDKN2A) in 72 h after compound treatment.

786-O = assay: Cell viability assay (CellTiter-Glo), 786-O; type: cell-based, human; settings: Homo sapiens; for EC50: 786-0, 72 h after compound treatment
Experimental: as §1, §2, §3

HCT-15 = assay: Cell viability assay (CellTiter-Glo), HCT-15; type: cell-based, human; settings: Homo sapiens; for EC50: 72 h after compound treatment
Experimental: as §1, §2, §3

SNU-182 = assay: Cell viability assay (CellTiter-Glo), SNU-182; type: cell-based, human; settings: Homo sapiens; for EC50: 72 h after compound treatment
Experimental: as §1, §2, §3

[1] = system: mTORC1 and mTORC2 downstream signaling (pS6, p4E-BP1, pAkt S473); assay: Downstream signaling of mTOR by immunoblotting, dose dependence, HCT-15 and SNU-449 cells; type: cell-based, human; settings: immunoblot at 3 h after compound treatment
Experimental: Downstream signaling of mTOR was tested using an immunoblotting method at 3 h after compound treatment.

[2] = system: mTORC1 and mTORC2 signaling (pS6, p4E-BP1, pAkt S473); assay: Time-course effects on mTORC1 and mTORC2 signaling in SNU-449; type: cell-based, human; settings: 0.33-24 h
Experimental: Cellular Signaling Effects of Class mTOR Inhibitors. Cells were seeded in 60 mm cell culture dishes and incubated 1-2 days until 70-90% confluency. Cells were treated with compound solution in DMSO (1000×) and incubated at 37° C. in a 5% CO2 humidified incubator for a given length of time. Whole cell lysates were prepared using RIPA buffer (R^3792) (TEKnova, Hollister, CA USA) with a phosphatase inhibitor cocktail tablet PhosStop and a protease inhibitor cocktail tablet cOmplete Mini (Roche Diagnostics GmbH, Mannheim, Germany). Cell lysates (based on a certain amount of protein determined by Pierce BCA Protein Assay Kit (PI-23225) (Thermo Fisher Scientific Inc., Waltham, MA USA)) were electrophoresed using a Criterion Tris-HCl gel 4-20% (Bio-Rad Laboratories, Hercules, CA USA) and transferred to a nitrocellulose membrane (162-0115) (Bio-Rad Laboratories, Hercules, CA USA). After incubation for more than 1 h with a blocking buffer at room temperature, membranes were labeled with primary antibodies by overnight incubation at 4° C., followed by 1 hour incubation with horseradish peroxidase-conjugated (HRP-conjugated) secondary antibodies at room temperature. The following antibodies were used for immunoblot: phospho-Akt (S473) (#9271), phospho-Akt (T308) (#2965), total-Akt (#9272), phospho-S6 (Ser240/Ser244) (#2215L), S6 ribosomal protein (#2217), phospho-4E-BP1 (T37/T46) (#2855), total 4E-BP1 (#9644) (Cell Signaling Technology, Inc., Danvers, MA USA), FKBP12 (sc-28814) mouse β-actin (sc-8432) (Santa Cruz Biotechnology, Inc., Dallas, Texas USA), anti-rabbit IgG conjugated with horseradish peroxidase (HRP) (#7074), and anti-mouse IgG conjugated with HRP (#7076) (Cell Signaling Technology, Inc., Danvers, MA USA). Nitrocellulose membranes were exposed with SuperSignal® West Pico Chemiluminescent Substrate or Femto Maximum Sensitivity Substrate (Thermo Fisher Scientific Inc., Waltham, MA USA) and signals were recorded on a CL-Xposure film (Thermo Fisher Scientific Inc., Waltham, MA USA).

[3] = system: phospho-4E-BP1, pS6, phospho-S473 of Akt in 786-O xenograft tumor; assay: Pharmacodynamic study in human renal cancer 786-O xenograft tumor in mice; type: in vivo
Experimental: Pharmacodynamic studies of M1071 in human renal cancer 786-O xenograft tumor in mice. […] Tumor samples were collected at 3 h after drug administration. For the MWF group, M-1071 was administered once daily every other day. At 4 h after the last administration, tumor samples were collected. After the freezing tumor samples, they were homogenized and treated with RIPA buffer containing phosphatase inhibitor and protease inhibitor. The following western blotting analysis were conducted in a similar way to abovementioned method.

[4] = system: TORC1 and TORC2 outputs (p4E-BP1, pS6); assay: Drug washout experiment in SNU-449 cells; type: cell-based, human; settings: 30 nM for 3 h, then washout
Experimental: Cellular Signaling Effects of Class mTOR Inhibitors. Cells were seeded in 60 mm cell culture dishes and incubated 1-2 days until 70-90% confluency. Cells were treated with compound solution in DMSO (1000×) and incubated at 37° C. in a 5% CO2 humidified incubator for a given length of time. […] After incubation for more than 1 h with a blocking buffer at room temperature, membranes were labeled with primary antibodies by overnight incubation at 4° C., followed by 1 hour incubation with horseradish peroxidase-conjugated (HRP-conjugated) secondary antibodies at room temperature. […] Nitrocellulose membranes were exposed with SuperSignal® West Pico Chemiluminescent Substrate or Femto Maximum Sensitivity Substrate (Thermo Fisher Scientific Inc., Waltham, MA USA) and signals were recorded on a CL-Xposure film (Thermo Fisher Scientific Inc., Waltham, MA USA).
Drug Washout Experiment. SNU-449 cells were treated with 30 nM of compounds for 3 h. The medium was aspirated out and cells were washed with fresh 10% FBS in RPMI1640 medium. Then, cells were incubated with fresh 10% FBS in RPMI1640 medium at 37° C. for described time period.

mTORC1 and mTORC2 = assay: Western blot analysis of mTORC1/mTORC2 inhibition in MCF-7 cells; type: cell-based; settings: 4 hours, western blot (FIG. 13A)
Experimental: FIGS. 13A-13B. FIG. 13A: MCF-7 cells were treated for 4 hours with E1035 and M1071 before harvesting. FIG. 13B: SNU-449 cells were treated with 3 hours with E1010 before harvesting. Cells were lysed and blotted for the indicated proteins. M1071 has the narrowest concentration range between mTORC1 and mTORC2 inhibition. The concentration range between mTORC1 and mTORC2 inhibition widens for E1035.
Cell Culture and Western Blot Analysis. Cells were grown in 6-well plates and treated with inhibitor at the indicated concentrations or with vehicle (0.1% DMSO). Treated cells were lysed, and lysates were resolved by SDS-PAGE, transferred to nitrocellulose and blotted. All antibodies were purchased from Cell Signaling Technology.

MCF-7 cells = assay: Cell proliferation assay (CellTiter-Glo, 72 h), MCF-7 cells; type: cell-based; settings: 72 hours (FIG. 14B)
Experimental: FIGS. 14A-14B. FIG. 14A: 786-O cells were treated for 72 hours with the indicated drugs before cell viability was measured. […] FIG. 14B: MCF-7 cells were treated for 72 hours with the indicated drugs before cell viability was measured.
Cell proliferation assays. Cells grown in 96-well plates were treated with inhibitor in triplicate or vehicle (0.1% DMSO). After 72 h, cell viability was assessed with the […]-GLO® Luminescent Cell Viability Assay (Promega). Cell proliferation curves were generated using Prism.

[5] = Effect on blood glucose level in mice; settings: mice (n=3), intraperitoneal, 1, 3 mg/kg
From the text: Effect on blood glucose level. […] Blood glucose levels (mg/dL) were monitored.

SNU-449 = assay: Cell viability assay (CellTiter-Glo), SNU-449; settings: Homo sapiens; for EC50: SNU-449, 72 h, read-out: EC50 (nM) SNU-449
Experimental: as §1, §2, §3

[6] = clinical trials; cited from earlier work

## CO[C@H]1C[C@@H]2CC[C@@H](C)[C@@](O)(O2)C(=O)C(=O)N2CCCC[C@H]2C(=O)O[C@H]([C@H](C)C[C@@H]2CC[C@@H](OCCOCc3cn(CCOCCOCCOCCOCCOCCOCCOCCOCCC(=O)NCCCCn4nc(-c5ccc6oc(N)nc6c5)c5c(N)ncnc54)nn3)[C@H](OC)C2)CC(=O)[C@H](C)/C=C(\C)[C@@H](O)[C@@H](OC)C(=O)[C@H](C)C[C@H](C)/C=C/C=C/C=C/1C [Compound M-1071, 40-O-(2-((1-(32-(4-amino-3-(2-aminobenzo[d]oxazol-5-yl)-1H-pyrazolo[3,4-d]pyrimidin-1-yl)-27-oxo-3,6,9,12,15,18,21,24-octaoxa-28-azadotriacontyl)-1H-1,2,3-triazol-4-yl)methoxy)ethyl)-rapamycin]
SNU-398
  EC50: < 10 nM
SNU-398; read-out: % inhibition at 10 μM SNU-398, 10 μM
  inhibition at 10 µM: 50 to 100%
786-O
  EC50: < 10 nM
786-O; 786-0, read-out: % inhibition at 10 μM 786-O, 10 μM
  inhibition at 10 µM: 25 to 50%
HCT-15
  EC50: < 10 nM
HCT-15; read-out: % inhibition at 10 μM HCT-15, 10 μM
  inhibition at 10 µM: 50 to 100%
SNU-182
  EC50: < 10 nM
SNU-182; read-out: % inhibition at 10 μM SNU-182, 10 μM
  inhibition at 10 µM: 25 to 50%
[1]
  mTORC1/2 downstream inhibition (pS6, p4E-BP1 and pAkt S473): stronger inhibition of mTORC1 signaling (pS6 and p4E-BP1) compared to mTORC2 downstream Akt S473 phosphorylation
  p4E-BP1 inhibition: complete p4E-BP1 inhibition at drug concentrations in which pAkt S473 is not inhibited
[2]
  p4E-BP1 inhibition, time course: continuous complete inhibition of TORC1 outputs within 3-24 h
  phosphorylation of Akt S473, time course: transient feedback activation on Akt S473 at 1 and 3 h, and then a slight inhibition was observed at 24 h
[3]; 5 mg/kg
  inhibition of pS6 and p4EBP-1 in tumor: complete inhibition
[3]; highest dosing of 5 mg/kg
  inhibition of phospho-S473 of Akt in tumor: slight
[3]; intraperitoneal
  Phosphorylation of S6 in tumor: inhibited
[3]; intraperitoneal, tumor collected 3 h after administration
  inhibition against phospho-4E-BP1 in tumor: dose dependent inhibition
[4]
  sustained inhibitory effect on p4E-BP1 after washout: at least 2 h
  sustained inhibitory effect on pS6 after washout: at least 4 h
mTORC1 and mTORC2
  concentration range between mTORC1 and mTORC2 inhibition: narrowest
  mTORC2 inhibition: also inhibits mTORC2
MCF-7 cells
  effects on cell proliferation: potent effects on cell proliferation
[5]
  blood glucose level: no increase in blood glucose levels
SNU-449
  EC50: < 10 nM
SNU-449; SNU-449, read-out: % inhibition at 10 μM SNU-449
  inhibition at 10 µM: 25 to 50%

## CC(C)n1nc(-c2ccc3oc(N)nc3c2)c2c(N)ncnc21 [MLN0128, reference compound]
SNU-398
  EC50: 10 to 50 nM
786-O
  EC50: 50 to 100 nM
HCT-15
  EC50: 50 to 100 nM
SNU-182
  EC50: 50 to 100 nM
[1]
  mTORC1/2 downstream inhibition (pS6, p4E-BP1 and pAkt S473): pan-mTORC1/2 downstream inhibition
[2]
  p4E-BP1 inhibition, time course: completely inhibited p4E-BP1 in early onset (0.33-1 h) and then partial phosphorylation of 4E-BP1 was observed after 3 h to 24 h
  phosphorylation of Akt S473, time course: blocked phosphorylation of pAkt S473 continuously during 0.33-24 h
[4]
  time until inhibitory effects disappeared after washout: ≤ 1 h
[6]
  dose limiting toxicity: Grade ≥3 hyperglycemia
SNU-449
  EC50: 10 to 50 nM
